# “Also recorded” adds a separate entry of the source.
# What was measured:
# [1] = tested on: SGLT2 over SGLT1; details: cited from earlier work
# [2] = tested on: murine macrophages; details: murine macrophages in vitro, cited from earlier work
# [3] = tested on: human THP-1 macrophages; details: pretreatment for 24 hours; cited from earlier work
# [4] = cited from earlier work
# [5] = mice, 10 mg/kg dose; cited from earlier work
# [6] = tested on: IL-10−/− mice with established colitis; assay: EMPA treatment of adult IL-10−/− mice with established colitis; type: in vivo, mouse
# From the text: Methods: In our colony, IL-10−/− mice begin to develop colitis between 8-12 weeks of age. […] Further, this dose was also chosen to match the active dose in humans by considering the differences in the metabolism and other pharmacokinetic parameters between mice and humans^55. The dose used in this study results in free plasma concentration of ˜20 nmol/L in mice^56 which is within the normal and safe range of that reported in humans^57-59. […] Adult IL-10^−/− mice with established colitis were treated with a daily gavage of EMPA (10 mg/kg; n=10) or vehicle (n=10) for 14 days. Disease activity was assessed by measurement of mouse weight, colonic weight and length, histological score, cytokine levels in colonic homogenate and lipocalin-2 levels in stool. To examine for possible direct effects of EMPA, colonic explants from wild-type and IL-10^−/− mice were incubated with increasing doses of EMPA (0.1-5 μM)±LPS for 2 hours and tissue levels of IL-1β and TNFα measured.
# FIG. 4. Representative histological samples of colons. Colons were flushed with phosphate-buffered saline containing 0.1% gentamycin and immediately fixed in 10% v/v neutral buffered formalin. The fixed samples were paraffin-embedded, sectioned, and stained with hematoxylin and eosin. Disease scoring methods used were based on four scores: 1) epithelial hyperplasia (0-3), 2) enterocyte injury (0-3), 3) lymphocytes (0-2) and neutrophil infiltration (0-2) in the lamina propria. The total maximum histological score (10) is based on the sum of the individual scores. (A) control. (B) Empa.
# [7] = healthy humans, dose matched to the human active dose; cited from earlier work
# [8] = EMPA 10 mg/kg daily gavage, 14 days, p=0.04
compound,measurement,setting,value
"OC[C@H]1O[C@@H](c2ccc(Cl)c(Cc3ccc(O[C@H]4CCOC4)cc3)c2)[C@H](O)[C@@H](O)[C@@H]1O [EMPA, Empagliflozin]",selectivity for SGLT2 over SGLT1,[1],~2700 fold
same,expression of anti-inflammatory M2 markers,[2]; AMPK-mediated mechanism,increased
same,LPS-induced ATP depletion,[2],prevented
same,LPS-induced TNFα and iNOS expression,[2],attenuated
same,TNFα-stimulated chemokine release,[3],decreased
same,time to peak levels,[4]; after a single dose,1.5 h
same,bioavailability,[4]; humans,78%
same,half-life,[4]; in humans,~12 h
same,recovered in the feces as unchanged drug,[4]; in vivo,Approximately 40%
same,free plasma concentration,[5],~20 nmol/L
same,lymphocytic infiltration into the lamina propria,"[6]; EMPA 10 mg/kg daily gavage, 14 days",reduced
same,enterocyte injury (histological score),"[6]; EMPA 10 mg/kg daily gavage, 14 days, vs vehicle, p<0.01",no enterocyte injury; also recorded: significant decrease
same,total histological score,"[6]; EMPA 10 mg/kg daily gavage, 14 days, vs vehicle, p=0.006",decreased
same,lamina propria neutrophils (histological score),"[6]; EMPA 10 mg/kg daily gavage, 14 days, vs vehicle, p=0.01",decreased
same,colonic weight to length ratio,"[6]; EMPA 10 mg/kg daily gavage, 14 days, vs vehicle, p=0.019",decreased
same,fecal lipocalin-2,"[6]; EMPA 10 mg/kg daily gavage, 14 days, vs vehicle, p=0.03",decrease
same,colonic TNFα (real-time qPCR),"[6]; EMPA 10 mg/kg daily gavage, 14 days, p=0.02",significant decreases
same,colonic IFNγ (real-time qPCR),[6]; [8],significant decreases
same,colonic IL-1β (real-time qPCR),[6]; [8],significant decreases
same,body weight over the 14 days,"[6]; EMPA 10 mg/kg daily gavage, vehicle treated mice continued to lose weight, p=0.04",maintained their weight
same,blood glucose levels in pilot experiments,"[6]; EMPA 10 mg/kg dose, pilot experiments",no effect
same,blood glucose levels,"[6]; EMPA-treated mice vs controls, 14 days",no significant differences
same,hypoglycemia,[7],does not cause hypoglycemia

# From patent publication US20240148767A1, “THE USE OF EMPAGLIFLOZIN FOR THE TREATMENT OF ULCERATIVE COLITIS AND CROHN'S DISEASE” (The Governors of the University of Alberta, priority 2021, published 2024)
